What was measured:
[1] = system: Staphylococcus aureus 6538P; experiment: MIC, two-fold agar dilution; assay type: cell-based; conditions: Muller-Hinton agar, 37° C., 20 hours
[2] = system: Staphylococcus aureus giorgio; experiment: MIC, two-fold agar dilution; assay type: cell-based; conditions: Muller-Hinton agar, 37° C., 20 hours
Staphylococcus aureus 77 = experiment: MIC, two-fold agar dilution; assay type: cell-based; conditions: Muller-Hinton agar, 37° C., 20 hours
[3] = system: Staphylococcus aureus 241; experiment: MIC, two-fold agar dilution; assay type: cell-based; conditions: Muller-Hinton agar, 37° C., 20 hours
[4] = system: Staphylococcus epidermidis 887E; experiment: MIC, two-fold agar dilution; assay type: cell-based; conditions: Muller-Hinton agar, 37° C., 20 hours
[5] = system: Streptococcus laecalis 29212A; experiment: MIC, two-fold agar dilution; assay type: cell-based; conditions: Muller-Hinton agar, 37° C., 20 hours
E. coli 10536 = experiment: MIC, two-fold agar dilution; assay type: cell-based; conditions: Muller-Hinton agar, 37° C., 20 hours
E. coli 3190Y = experiment: MIC, two-fold agar dilution; assay type: cell-based; conditions: Muller-Hinton agar, 37° C., 20 hours
E. coli 851E = experiment: MIC, two-fold agar dilution; assay type: cell-based; conditions: Muller-Hinton agar, 37° C., 20 hours
E. coli TEM1 1193E = experiment: MIC, two-fold agar dilution; assay type: cell-based; conditions: Muller-Hinton agar, 37° C., 20 hours
E. coli TEM3 3455E = experiment: MIC, two-fold agar dilution; assay type: cell-based; conditions: Muller-Hinton agar, 37° C., 20 hours
E. coli TEM5 3739E = experiment: MIC, two-fold agar dilution; assay type: cell-based; conditions: Muller-Hinton agar, 37° C., 20 hours
E. coli TEM7 3457E = experiment: MIC, two-fold agar dilution; assay type: cell-based; conditions: Muller-Hinton agar, 37° C., 20 hours
E. coli TEM9 2639E = experiment: MIC, two-fold agar dilution; assay type: cell-based; conditions: Muller-Hinton agar, 37° C., 20 hours
[6] = system: Pseudomonas aeruginosa 1912E; experiment: MIC, two-fold agar dilution; assay type: cell-based; conditions: Muller-Hinton agar, 37° C., 20 hours
[7] = system: Pseudomonas aeruginosa 10145; experiment: MIC, two-fold agar dilution; assay type: cell-based; conditions: Muller-Hinton agar, 37° C., 20 hours
[8] = system: Pseudomonas aeruginosa 6065; experiment: MIC, two-fold agar dilution; assay type: cell-based; conditions: Muller-Hinton agar, 37° C., 20 hours
[9] = system: Acinetobacter calcoaceticus 15473A; experiment: MIC, two-fold agar dilution; assay type: cell-based; conditions: Muller-Hinton agar, 37° C., 20 hours
[10] = system: Citrobacter diversus 2046E; experiment: MIC, two-fold agar dilution; assay type: cell-based; conditions: Muller-Hinton agar, 37° C., 20 hours
[11] = system: Enterobacter cloacae IND + VE 1194E; experiment: MIC, two-fold agar dilution; assay type: cell-based; conditions: Muller-Hinton agar, 37° C., 20 hours
Enterobacter cloacae P99 = experiment: MIC, two-fold agar dilution; assay type: cell-based; conditions: Muller-Hinton agar, 37° C., 20 hours
[12] = system: Klebsiella aerogenes SHV-1 1976E; experiment: MIC, two-fold agar dilution; assay type: cell-based; conditions: Muller-Hinton agar, 37° C., 20 hours
[13] = system: Klebsiella aerogenes K1 + 1082E; experiment: MIC, two-fold agar dilution; assay type: cell-based; conditions: Muller-Hinton agar, 37° C., 20 hours
Proteus vularis 6059A = experiment: MIC, two-fold agar dilution; assay type: cell-based; conditions: Muller-Hinton agar, 37° C., 20 hours
[14] = system: Serratia marcescens 1826E; experiment: MIC, two-fold agar dilution; assay type: cell-based; conditions: Muller-Hinton agar, 37° C., 20 hours
[15] = system: Salmonella typhimurium 14028A; experiment: MIC, two-fold agar dilution; assay type: cell-based; conditions: Muller-Hinton agar, 37° C., 20 hours
[16] = pharmakinetic variables in SD rats; conditions: rat, in vivo, iv, 20 mg/kg
Method: The pharmakinetic variables were determined using SD rats (.male.) of a body weight of 230±10g as follows. The "S" compound of each of the Examples was injected to femoral vein of 4-5 rats by 20mg/Kg and then blood was collected from femoral artery in 1, 2.5, 5, 10, 20, 40, 60 and 120 min.

Row | SMILES | minimal inhibitory concentration (MIC) [1] | minimal inhibitory concentration (MIC) [2] | minimal inhibitory concentration (MIC) (Staphylococcus aureus 77) | minimal inhibitory concentration (MIC) [3] | minimal inhibitory concentration (MIC) [4] | minimal inhibitory concentration (MIC) [5] | minimal inhibitory concentration (MIC) (E. coli 10536) | minimal inhibitory concentration (MIC) (E. coli 3190Y) | minimal inhibitory concentration (MIC) (E. coli 851E) | minimal inhibitory concentration (MIC) (E. coli TEM1 1193E) | minimal inhibitory concentration (MIC) (E. coli TEM3 3455E) | minimal inhibitory concentration (MIC) (E. coli TEM5 3739E) | minimal inhibitory concentration (MIC) (E. coli TEM7 3457E) | minimal inhibitory concentration (MIC) (E. coli TEM9 2639E) | minimal inhibitory concentration (MIC) [6] | minimal inhibitory concentration (MIC) [7] | minimal inhibitory concentration (MIC) [8] | minimal inhibitory concentration (MIC) [9] | minimal inhibitory concentration (MIC) [10] | minimal inhibitory concentration (MIC) [11] | further results
1 | Cc1c(N)nc(SCC2=C(C(=O)O)N3C(=O)[C@@H](NC(=O)/C(=N\O[C@H](C(=O)O)c4ccc(O)c(O)c4)c4csc(N)n4)[C@H]3SC2)nc1N [Compound I-2S, 7-[(Z)-2-(aminothiazol-4-yl)-2-(α-carboxyl-3,4-dihydroxybenzyloxyimino)acetamido]-3-(4,6-diamino-5-methylpyrimidine-2-yl)thiomethyl-3-cephem-4-carboxylate] | 1 | 1 | 4 | 64 | 16 | 4 | ≤ 0.008 | 0.063 | 0.031 | 0.031 | 0.016 | 0.063 | ≤ 0.008 | 0.25 | 0.5 | 0.13 | 0.25 | 0.25 | 0.016 | 4 | minimal inhibitory concentration (MIC) (Enterobacter cloacae P99): 8; minimal inhibitory concentration (MIC) [12]: 0.13; minimal inhibitory concentration (MIC) [13]: 0.031; minimal inhibitory concentration (MIC) (Proteus vularis 6059A): 0.13; minimal inhibitory concentration (MIC) [14]: 0.25; minimal inhibitory concentration (MIC) [15]: 0.016; AUC at 2 h [16]: 54100 ng·h/mL; half-life [16]: 55 min
2 | Nc1nc(/C(=N/O[C@H](C(=O)O)c2ccc(O)c(O)c2)C(=O)N[C@@H]2C(=O)N3C(C(=O)O)=C(CSc4nc(N)c5c(n4)CCC5)CS[C@H]23)cs1 [Compound I-4S, 7-[(Z)-2-(aminothiazol-4-yl)-2-(α-carboxyl-3,4-dihydroxybenzyioxyimino)acetamido]-3-(4-amino-5,6-cyclopentapyrimidine-2-yl)thiomethyl-3-cephem-4-carboxylate] | 1 | 1 | 8 | 64 | 32 | 4 | ≤ 0.008 | 0.031 | 0.031 | 0.063 | 0.016 | 0.063 | ≤ 0.008 | 0.25 | 0.25 | 0.13 | 0.13 | 0.13 | 0.063 | 2 | minimal inhibitory concentration (MIC) (Enterobacter cloacae P99): 8; minimal inhibitory concentration (MIC) [12]: 0.13; minimal inhibitory concentration (MIC) [13]: 0.031; minimal inhibitory concentration (MIC) (Proteus vularis 6059A): 0.13; minimal inhibitory concentration (MIC) [14]: 0.25; minimal inhibitory concentration (MIC) [15]: 0.016; AUC at 2 h [16]: 55500 ng·h/mL; half-life [16]: 57 min
3 | Nc1cc(N)nc(SCC2=C(C(=O)O)N3C(=O)[C@@H](NC(=O)/C(=N\O[C@H](C(=O)O)c4ccc(O)c(O)c4)c4csc(N)n4)[C@H]3SC2)n1 [Compound I-1S, 7-[(Z)-2-(aminothiazol-4-yl)-2-(α-carboxy-3,4-dihydroxybenzyloxyimino)acetamido]-3-(4,6-diamino-pyrimidine-2-yl) thiomethyl-3-cephem-4-carboxylate] | 2 | 1 | 8 | 64 | 32 | 4 | ≤ 0.008 | 0.031 | 0.031 | 0.031 | 0.016 | 0.063 | ≤ 0.008 | 0.25 | 0.25 | 0.13 | 0.25 | 0.13 | 0.063 | 2 | minimal inhibitory concentration (MIC) (Enterobacter cloacae P99): 16; minimal inhibitory concentration (MIC) [12]: 0.13; minimal inhibitory concentration (MIC) [13]: 0.031; minimal inhibitory concentration (MIC) (Proteus vularis 6059A): 0.13; minimal inhibitory concentration (MIC) [14]: 0.25; minimal inhibitory concentration (MIC) [15]: 0.016; AUC at 2 h [16]: 61600 ng·h/mL; half-life [16]: 62 min
4 | Nc1nc(/C(=N/O[C@H](C(=O)O)c2ccc(O)c(O)c2)C(=O)N[C@@H]2C(=O)N3C(C(=O)O)=C(CSc4nc(N)c(N)c(N)n4)CS[C@H]23)cs1 [Compound I-5S, 7-[(Z)-2-(aminothiazol-4-yl)-2-(α-carboxy-3,4-dihydroxybenzyloxyimino)acetamido]-3-(4,5,6-triaminopyrimidine-2-yl)thiomethyl-3-cephem-4-carboxylate] | 2 | 1 | 8 | 64 | 32 | 4 | ≤ 0.008 | 0.031 | 0.031 | 0.031 | 0.016 | 0.063 | ≤ 0.008 | 0.25 | 0.25 | 0.13 | 0.25 | 0.13 | 0.063 | 2 | minimal inhibitory concentration (MIC) (Enterobacter cloacae P99): 8; minimal inhibitory concentration (MIC) [12]: 0.13; minimal inhibitory concentration (MIC) [13]: 0.031; minimal inhibitory concentration (MIC) (Proteus vularis 6059A): 0.13; minimal inhibitory concentration (MIC) [14]: 0.25; minimal inhibitory concentration (MIC) [15]: 0.016; AUC at 2 h [16]: 59500 ng·h/mL; half-life [16]: 59 min
5 | Nc1ccnc(SCC2=C(C(=O)O)N3C(=O)[C@@H](NC(=O)/C(=N\O[C@H](C(=O)O)c4ccc(O)c(O)c4)c4csc(N)n4)[C@H]3SC2)n1 [Compound I-3S, 7-[(Z)-2-(aminothiazol-4-yl)-2-(α-carboxyl-3,4-dihydroxybenzyloxyimino)acetamido]-3-(4-amino-pyrimidine-2-yl) thiomethyl-3-cephem-4-carboxylate] | 2 | 1 | 4 | 128 | 32 | 4 | ≤ 0.008 | 0.031 | 0.063 | 0.031 | 0.016 | 0.063 | 0.063 | 0.25 | 0.25 | 0.13 | 0.5 | 0.13 | 0.031 | 2 | minimal inhibitory concentration (MIC) (Enterobacter cloacae P99): 8; minimal inhibitory concentration (MIC) [12]: 0.13; minimal inhibitory concentration (MIC) [13]: 0.031; minimal inhibitory concentration (MIC) (Proteus vularis 6059A): 0.13; minimal inhibitory concentration (MIC) [14]: 0.25; minimal inhibitory concentration (MIC) [15]: 0.016; AUC at 2 h [16]: 57900 ng·h/mL; half-life [16]: 58 min

From US5571804A, “Cephalosporin antibiotics” (priority 1993, dated 1996)
